Measurements: ChEMBL document CHEMBL2412969, “Antihyperglycemic and antihyperlipidemic activities of 2-(4-[(2-hydroxybenzyl) amino]-phenyl amino-methyl)-phenol in STZ induced diabetic rats” (Eur J Med Chem, 2013)
The source made the active and inactive calls. The rule behind the calls is not given here.

What was measured:
[1] = system: Rattus norvegicus; assay: Antihyperglycemic activity in Wistar albino rat streptozotocin-induced diabetic model assessed as reduction of blood glucose level at 30 mg/kg, po after 5 hrs (reference value: 372.2 +/- 16.6 mg/dl); format: functional
[2] = system: Rattus norvegicus; assay: Antihyperglycemic activity in Wistar albino rat streptozotocin-induced diabetic model assessed as reduction of blood glucose level at 30 mg/kg, po after 3 hrs (reference value: 384.33 +/- 17.33 mg/dl); format: functional
[3] = system: Rattus norvegicus; assay: Antihyperglycemic activity in Wistar albino rat streptozotocin-induced diabetic model assessed as reduction of blood glucose level at 30 mg/kg, po after 2 hrs (reference value: 386.66 +/- 17.5 mg/dl); format: functional
[4] = system: Rattus norvegicus; assay: Antihyperglycemic activity in Wistar albino rat streptozotocin-induced diabetic model assessed as reduction of blood glucose level at 20 mg/kg, po after 5 hrs (reference value: 372.2 +/- 16.6 mg/dl); format: functional
[5] = system: Rattus norvegicus; assay: Antihyperglycemic activity in Wistar albino rat streptozotocin-induced diabetic model assessed as reduction of blood glucose level at 20 mg/kg, po after 4 hrs (reference value: 373.5 +/- 15.6 mg/dl); format: functional
[6] = system: Rattus norvegicus; assay: Antihyperglycemic activity in Wistar albino rat streptozotocin-induced diabetic model assessed as reduction of blood glucose level at 20 mg/kg, po after 3 hrs (reference value: 384.33 +/- 17.33 mg/dl); format: functional
[7] = system: Rattus norvegicus; assay: Hypoglycemic activity in Wistar albino rat assessed as reduction of blood glucose level at 60 mg/kg, po after 5 hrs (reference value: 73.8 +/- 4.5 mg/dl); format: ADME, organism-based; set-up: dose 60 mg/kg, route oral; conditions: in vivo
[8] = system: Rattus norvegicus; assay: Hypoglycemic activity in Wistar albino rat assessed as reduction of blood glucose level at 60 mg/kg, po after 3 hrs (reference value: 76.3 +/- 5.4 mg/dl); format: ADME, organism-based; set-up: dose 60 mg/kg, route oral; conditions: in vivo
[9] = system: Rattus norvegicus; assay: Hypoglycemic activity in Wistar albino rat assessed as reduction of blood glucose level at 60 mg/kg, po after 2 hrs (reference value: 76.5 +/- 3.7 mg/dl); format: ADME, organism-based; set-up: dose 60 mg/kg, route oral; conditions: in vivo
[10] = system: Rattus norvegicus; assay: Hypoglycemic activity in Wistar albino rat assessed as reduction of blood glucose level at 60 mg/kg, po after 1 hr (reference value: 71.26 +/- 4.3 mg/dl); format: ADME, organism-based; set-up: dose 60 mg/kg, route oral; conditions: in vivo
[11] = system: Rattus norvegicus; assay: Hypoglycemic activity in Wistar albino rat assessed as reduction of blood glucose level at 30 mg/kg, po after 6 hrs (reference value: 73.3 +/- 4.4 mg/dl); format: ADME, organism-based; set-up: dose 30 mg/kg, route oral; conditions: in vivo
[12] = system: Rattus norvegicus; assay: Hypoglycemic activity in Wistar albino rat assessed as reduction of blood glucose level at 30 mg/kg, po after 5 hrs (reference value: 73.8 +/- 4.5 mg/dl); format: ADME, organism-based; set-up: dose 30 mg/kg, route oral; conditions: in vivo
[13] = system: Rattus norvegicus; assay: Hypoglycemic activity in Wistar albino rat assessed as reduction of blood glucose level at 30 mg/kg, po after 4 hrs (reference value: 75.8 +/- 4.7 mg/dl); format: ADME, organism-based; set-up: dose 30 mg/kg, route oral; conditions: in vivo
[14] = system: Rattus norvegicus; assay: Hypoglycemic activity in Wistar albino rat assessed as reduction of blood glucose level at 30 mg/kg, po after 3 hrs (reference value: 76.3 +/- 5.4 mg/dl); format: ADME, organism-based; set-up: dose 30 mg/kg, route oral; conditions: in vivo
[15] = system: Rattus norvegicus; assay: Hypoglycemic activity in Wistar albino rat assessed as reduction of blood glucose level at 30 mg/kg, po after 2 hrs (reference value: 76.5 +/- 3.7 mg/dl); format: ADME, organism-based; set-up: dose 30 mg/kg, route oral; conditions: in vivo
[16] = system: Rattus norvegicus; assay: Hypoglycemic activity in Wistar albino rat assessed as reduction of blood glucose level at 20 mg/kg, po after 6 hrs (reference value: 73.3 +/- 4.4 mg/dl); format: ADME, organism-based; set-up: dose 20 mg/kg, route oral; conditions: in vivo
[17] = system: Rattus norvegicus; assay: Hypoglycemic activity in Wistar albino rat assessed as reduction of blood glucose level at 20 mg/kg, po after 4 hrs (reference value: 75.8 +/- 4.7 mg/dl); format: ADME, organism-based; set-up: dose 20 mg/kg, route oral; conditions: in vivo
[18] = system: Rattus norvegicus; assay: Hypoglycemic activity in Wistar albino rat assessed as reduction of blood glucose level at 20 mg/kg, po after 5 hrs (reference value: 73.8 +/- 4.5 mg/dl); format: ADME, organism-based; set-up: dose 20 mg/kg, route oral; conditions: in vivo
[19] = system: Rattus norvegicus; assay: Hypoglycemic activity in Wistar albino rat assessed as reduction of blood glucose level at 20 mg/kg, po after 3 hrs (reference value: 76.3 +/- 5.4 mg/dl); format: ADME, organism-based; set-up: dose 20 mg/kg, route oral; conditions: in vivo
[20] = system: Rattus norvegicus; assay: Hepatoprotective activity in Wistar albino rat assessed as protection against streptozotocin-induced increase in AST, ALT and ALP level in serum at 30 mg/kg, po qd for 30 days; format: functional, organism-based; set-up: dose 30 mg/kg
[21] = system: Rattus norvegicus; assay: Renalprotective activity in Wistar albino rat assessed as protection against streptozotocin-induced increase in creatinine level in blood at 30 mg/kg, po qd for 30 days; format: functional
[22] = system: Rattus norvegicus; assay: Renaltoxicity in Wistar albino rat assessed as urea level in blood at 30 mg/kg, po qd for 30 days; format: organism-based; set-up: dose 30 mg/kg, route oral; conditions: in vivo, 720 h
[23] = system: Rattus norvegicus; assay: Antihyperlipidemic activity in Wistar albino rat streptozotocin-induced diabetic model assessed as reduction of serum LDL level at 30 mg/kg, po qd for 30 days; format: functional, organism-based; set-up: dose 30 mg/kg
[24] = system: Rattus norvegicus; assay: Antihyperlipidemic activity in Wistar albino rat streptozotocin-induced diabetic model assessed as reduction of serum total cholesterol level at 30 mg/kg, po qd for 30 days; format: functional, organism-based; set-up: dose 30 mg/kg
[25] = system: Rattus norvegicus; assay: Antihyperlipidemic activity in Wistar albino rat streptozotocin-induced diabetic model assessed as reduction of serum triglyceride level at 30 mg/kg, po qd for 30 days; format: functional, organism-based; set-up: dose 30 mg/kg
[26] = system: Rattus norvegicus; assay: Antihyperglycemic activity in Wistar albino rat streptozotocin-induced diabetic model assessed as increase of body weight at 30 mg/kg, po qd measured on day 15 (reference value: -30.3%); format: functional
[27] = system: Rattus norvegicus; assay: Antihyperglycemic activity in Wistar albino rat streptozotocin-induced diabetic model assessed as reduction of fasting blood glucose level at 30 mg/kg, po qd measured on day 30 relative to control; format: functional
[28] = system: Rattus norvegicus; assay: Antihyperglycemic activity in Wistar albino rat streptozotocin-induced diabetic model assessed as reduction of fasting blood glucose level at 30 mg/kg, po qd measured on day 15 (reference value: 404.2 +/- 29.15 mg/dl); format: functional
[29] = system: Rattus norvegicus; assay: Antihyperglycemic activity in Wistar albino rat streptozotocin-induced diabetic model assessed as reduction of fasting blood glucose level at 30 mg/kg, po qd measured on day 1 (reference value: 416.4 +/- 24.2 mg/dl); format: functional
[30] = system: Rattus norvegicus; assay: Hypoglycemic activity in Wistar albino rat assessed as reduction of fasting blood glucose level at 30 mg/kg, po qd measured on day 30 (reference value: 94.8 +/- 10.4 mg/dl); format: ADME, organism-based; set-up: dose 30 mg/kg, route oral; conditions: in vivo
[31] = system: Rattus norvegicus; assay: Antihyperglycemic activity in glucose loaded Wistar albino rat streptozotocin-induced diabetic model assessed as reduction of blood glucose level at 30 mg/kg, po after 1 hr by oral glucose tolerance test; format: functional, organism-based; set-up: dose 30 mg/kg
[32] = system: Rattus norvegicus; assay: Antihyperglycemic activity in Wistar albino rat streptozotocin-induced diabetic model assessed as reduction of blood glucose level at 60 mg/kg, po after 6 hrs (reference value: 372.5 +/- 15.6 mg/dl); format: functional
[33] = system: Rattus norvegicus; assay: Antihyperglycemic activity in Wistar albino rat streptozotocin-induced diabetic model assessed as reduction of blood glucose level at 60 mg/kg, po after 5 hrs (reference value: 372.2 +/- 16.6 mg/dl); format: functional
[34] = system: Rattus norvegicus; assay: Antihyperglycemic activity in Wistar albino rat streptozotocin-induced diabetic model assessed as reduction of blood glucose level at 30 mg/kg, po after 6 hrs (reference value: 372.5 +/- 15.6 mg/dl); format: functional

Work on `Oc1ccccc1CNc1ccc(NCc2ccccc2O)cc1` yielded an Activity [1] of 172.8 mg/dL, an Activity [2] of 248.8 mg/dL and an Activity [3] of 252.1 mg/dL. It also gave an Activity [4] of 204.8 mg/dL, an Activity [5] of 265.16 mg/dL and an Activity [6] of 301.3 mg/dL. The Activity [7] was 78 mg/dL, the Activity [8] was 73.6 mg/dL and the Activity [9] was 71.3 mg/dL. The Activity [10] was 75.7 mg/dL, the Activity [11] was 72.5 mg/dL and the Activity [12] was 72.8 mg/dL. The Activity [13] was 73.16 mg/dL, the Activity [14] was 74.16 mg/dL and the Activity [15] was 73.66 mg/dL. The Activity [16] was 70 mg/dL, the Activity [17] was 72 mg/dL and the Activity [18] was 70.1 mg/dL. For the same molecule, the Activity [19] was 74.16 mg/dL, the Activity [20] was “Active” and the Activity [21] was 0.462 mg/dL. The Activity [22] was 43.25 mg/dL, the Activity [23] was “Active” and the Activity [24] was “Active”. The Activity [25] was “Active”, the Activity [26] was 8.57% and the Activity [27] was 113.5 mg/dL. For the same molecule, the Activity [28] was 247.5 mg/dL, the Activity [29] was 333 mg/dL and the Activity [30] was 98.67 mg/dL. For the same molecule, the Activity [31] was “Active”, the Activity [32] was 36.8 mg/dL and the Activity [33] was 49.1 mg/dL. It also gave an Activity [34] of 102 mg/dL.
